The text below walks through data of ChEMBL document CHEMBL5338745, “Factor XIa Inhibitors in Anticoagulation Therapy: Recent Advances and Perspectives” (J Med Chem, 2023).

Molecules are shown by their SMILES.

In data set [1] the target is T1, Coagulation factor XI (Homo sapiens, UniProt P03951). As to the kind of experiment: Inhibition of FXIa (unknown origin).
The next data set addresses Prothrombin (Homo sapiens, UniProt P00734). Briefly: Inhibition of human thrombin.
A further data set addresses Trypsin (Homo sapiens, UniProt P07477+P07478+P35030). As to the kind of experiment: Inhibition of human trypsin. It counts as protein assay.
Another data set concerns the target Plasminogen (Homo sapiens, UniProt P00747). As to the kind of experiment: Inhibition of human plasmin.
Another data set concerns the target Coagulation factor X (Homo sapiens, UniProt P00742). As to the kind of experiment: Inhibition of human FXa.
Another data set has as its target T2, Coagulation factor VII (Homo sapiens, UniProt P08709).
T2 sequence (P08709 whole entry): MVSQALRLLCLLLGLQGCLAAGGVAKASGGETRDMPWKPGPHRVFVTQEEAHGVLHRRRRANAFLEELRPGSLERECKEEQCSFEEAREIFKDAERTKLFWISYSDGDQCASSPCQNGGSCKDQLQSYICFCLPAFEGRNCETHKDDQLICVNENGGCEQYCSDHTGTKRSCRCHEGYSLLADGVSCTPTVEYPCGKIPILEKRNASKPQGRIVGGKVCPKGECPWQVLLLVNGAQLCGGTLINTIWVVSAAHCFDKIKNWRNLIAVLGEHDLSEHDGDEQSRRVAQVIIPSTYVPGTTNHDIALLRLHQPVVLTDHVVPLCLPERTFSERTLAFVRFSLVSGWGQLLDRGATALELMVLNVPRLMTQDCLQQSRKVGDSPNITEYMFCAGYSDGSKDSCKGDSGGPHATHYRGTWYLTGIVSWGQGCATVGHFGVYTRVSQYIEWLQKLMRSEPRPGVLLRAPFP
Briefly: Inhibition of human FVIIa.

For a further data set, the target named is T3, Coagulation factor XII (Homo sapiens, UniProt P00748).
T3 sequence (P00748 whole entry): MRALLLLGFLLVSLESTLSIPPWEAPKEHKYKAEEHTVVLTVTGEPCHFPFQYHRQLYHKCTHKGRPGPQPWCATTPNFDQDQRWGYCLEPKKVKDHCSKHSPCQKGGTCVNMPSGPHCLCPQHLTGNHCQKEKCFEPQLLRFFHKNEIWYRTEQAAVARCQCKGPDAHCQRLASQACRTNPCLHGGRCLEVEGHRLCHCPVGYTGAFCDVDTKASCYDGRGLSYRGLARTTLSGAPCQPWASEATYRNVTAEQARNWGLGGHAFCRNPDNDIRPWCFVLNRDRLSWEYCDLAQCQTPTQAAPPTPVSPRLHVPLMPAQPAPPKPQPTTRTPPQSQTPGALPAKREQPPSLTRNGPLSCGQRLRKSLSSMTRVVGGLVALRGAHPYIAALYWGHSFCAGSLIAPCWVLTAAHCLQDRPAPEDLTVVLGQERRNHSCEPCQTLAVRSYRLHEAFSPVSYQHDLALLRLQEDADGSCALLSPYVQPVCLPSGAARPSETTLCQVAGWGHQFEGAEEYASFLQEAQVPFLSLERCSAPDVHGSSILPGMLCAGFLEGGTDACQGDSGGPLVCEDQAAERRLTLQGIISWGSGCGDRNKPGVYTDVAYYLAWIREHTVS
As to the kind of experiment: Inhibition of human FXIIa.

The next data set deals with Chymotrypsin (Homo sapiens, UniProt Q99895+P17538+P40313+Q6GPI1). Briefly: Inhibition of human chymotrypsin. Type of data set: protein assay.
Data set [2] can be described thus: Metabolic stability in dog liver microsomes assessed as half life. Type of data set: ADME, Canis lupus familiaris, Microsome. (In general: Liver microsomes are a subcellular fraction often used to study metabolism.)
The nature of data set [3]: Plasma protein binding in human at 10 pM incubated for 4 hrs by HPLC-MS/MS analysis. Type of data set: ADME, cell-free. The note with it: read-out: PPB.
Data set [4] in a line: Oral bioavailability in dog. The following applies: in vivo. It counts as ADME, organism-based, Canis lupus familiaris.
Another data set concerns the target T4, Neutrophil elastase (Homo sapiens, UniProt P08246).
T4 sequence (P08246 whole entry): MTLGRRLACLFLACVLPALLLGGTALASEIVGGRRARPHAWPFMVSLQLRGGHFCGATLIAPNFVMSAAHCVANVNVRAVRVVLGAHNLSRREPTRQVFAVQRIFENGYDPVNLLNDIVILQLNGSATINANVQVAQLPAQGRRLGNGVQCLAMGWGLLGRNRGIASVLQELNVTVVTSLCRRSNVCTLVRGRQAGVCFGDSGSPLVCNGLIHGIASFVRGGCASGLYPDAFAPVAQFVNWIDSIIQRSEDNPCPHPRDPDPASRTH
Briefly: Inhibition of human Neutrophil elastase.

A further data set deals with T5, Cathepsin G (Homo sapiens, UniProt P08311).
T5 sequence (P08311 whole entry): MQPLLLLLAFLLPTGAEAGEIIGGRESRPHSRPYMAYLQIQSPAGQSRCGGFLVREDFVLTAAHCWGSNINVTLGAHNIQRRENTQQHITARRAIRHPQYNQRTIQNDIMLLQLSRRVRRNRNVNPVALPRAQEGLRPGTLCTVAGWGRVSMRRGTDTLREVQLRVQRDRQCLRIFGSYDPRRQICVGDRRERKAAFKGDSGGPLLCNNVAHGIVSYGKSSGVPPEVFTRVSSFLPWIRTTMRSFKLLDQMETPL
As to the kind of experiment: Inhibition of human cathepsin G.

Another data set has as its target Plasma kallikrein (Homo sapiens, UniProt P03952).
The nature of data set [5]: Half life in Sprague-Dawley rat at 5 to 10 mg/kg, po by LC-MS/MS analysis. It counts as ADME, organism-based. The following applies: in vivo, dose 5-10 mg/kg.
A short description of data set [6]: Clearance in Sprague-Dawley rat at 5 to 10 mg/kg, po by LC-MS/MS analysis. Type of data set: ADME, organism-based. The following applies: in vivo, dose 5-10 mg/kg.
Data set [7] can be described thus: Oral bioavailability in Sprague-Dawley rat at 5 to 10 mg/kg by LC-MS/MS analysis. It counts as ADME, organism-based. The following applies: in vivo, dose 5-10 mg/kg.
Data set [8] has as its target T1, Coagulation factor XI. Briefly: Inhibition of human FXIa.
A short description of data set [9]: Half life in human at 0.6 mg/kg, iv administered for 5 days. Type of data set: ADME, organism-based. The following applies: in vivo, time 5 day.
A short description of data set [10]: Half life in rat. Type of data set: ADME. The note with it: in vivo.
The nature of data set [11]: Clearance in rat. The note with it: in vivo. It counts as ADME.
Data set [12] in a line: Solubility of the compound. Type of data set: physicochemical.
Data set [13] can be described thus: Half life in Sprague-Dawley rat at 1 mg/kg, iv by LC-MS/MS analysis. The note with it: in vivo. Type of data set: ADME, organism-based.
A short description of data set [14]: Oral bioavailability in Sprague-Dawley rat at 2 mg/kg by LC-MS/MS analysis. The note with it: in vivo. It counts as ADME, organism-based.
In the next data set the test system is Plasma. As to the kind of experiment: Anticoagulant activity in human plasma assessed as concentration required to double the activated partial thromboplastin time. It counts as functional.
The nature of data set [15]: Half life in cynomolgus monkey at 1 mg/kg, iv. It counts as ADME, organism-based, Macaca fascicularis. The following applies: in vivo.
Data set [16] can be described thus: Clearance in cynomolgus monkey at 1 mg/kg, iv. Type of data set: ADME, organism-based, Macaca fascicularis. The note with it: in vivo.
Data set [17] can be described thus: Oral bioavailability in cynomolgus monkey at 10 mg/kg, […]. The note with it: in vivo. Type of data set: ADME, organism-based, Macaca fascicularis.

T1 sequence (P03951 19-387 limits assumed): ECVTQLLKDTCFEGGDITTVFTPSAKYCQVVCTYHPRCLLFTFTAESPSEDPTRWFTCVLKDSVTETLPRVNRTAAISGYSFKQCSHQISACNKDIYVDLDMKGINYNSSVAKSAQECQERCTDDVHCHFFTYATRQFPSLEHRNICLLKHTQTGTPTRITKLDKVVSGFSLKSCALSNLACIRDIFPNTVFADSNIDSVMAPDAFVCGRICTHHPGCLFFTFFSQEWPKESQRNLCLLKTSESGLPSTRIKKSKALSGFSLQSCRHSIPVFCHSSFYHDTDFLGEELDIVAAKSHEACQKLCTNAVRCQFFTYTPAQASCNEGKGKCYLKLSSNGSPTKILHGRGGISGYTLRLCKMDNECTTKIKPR
T1 sequence (P03951 388-625 limits assumed): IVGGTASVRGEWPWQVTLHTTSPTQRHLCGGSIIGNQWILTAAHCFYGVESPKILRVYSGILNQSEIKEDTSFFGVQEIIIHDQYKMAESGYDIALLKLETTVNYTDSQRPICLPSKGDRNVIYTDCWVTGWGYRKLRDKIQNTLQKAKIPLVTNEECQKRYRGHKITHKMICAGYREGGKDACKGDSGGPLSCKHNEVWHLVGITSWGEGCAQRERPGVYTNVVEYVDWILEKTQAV
Sequence of Plasma kallikrein (P03952 20-390 limits assumed): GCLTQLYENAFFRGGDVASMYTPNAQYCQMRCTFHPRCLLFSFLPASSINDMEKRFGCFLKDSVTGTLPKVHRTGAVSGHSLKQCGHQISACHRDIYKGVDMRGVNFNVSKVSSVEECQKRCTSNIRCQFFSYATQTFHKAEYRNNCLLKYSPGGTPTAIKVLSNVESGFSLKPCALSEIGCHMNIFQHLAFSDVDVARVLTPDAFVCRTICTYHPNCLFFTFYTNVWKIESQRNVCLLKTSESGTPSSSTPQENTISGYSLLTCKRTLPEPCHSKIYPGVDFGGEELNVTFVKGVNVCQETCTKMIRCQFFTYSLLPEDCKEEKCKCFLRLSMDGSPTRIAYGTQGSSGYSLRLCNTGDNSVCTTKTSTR
Sequence of Plasma kallikrein (P03952 391-638 limits assumed): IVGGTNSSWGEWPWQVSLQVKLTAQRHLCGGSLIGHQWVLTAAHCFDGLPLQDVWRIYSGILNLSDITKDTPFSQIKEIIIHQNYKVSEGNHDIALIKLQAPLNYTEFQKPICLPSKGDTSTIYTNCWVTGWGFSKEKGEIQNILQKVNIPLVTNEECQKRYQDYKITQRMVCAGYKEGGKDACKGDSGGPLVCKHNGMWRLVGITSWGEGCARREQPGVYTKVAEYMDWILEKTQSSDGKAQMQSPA
Sequence of Coagulation factor X (P00742 41-179 limits assumed): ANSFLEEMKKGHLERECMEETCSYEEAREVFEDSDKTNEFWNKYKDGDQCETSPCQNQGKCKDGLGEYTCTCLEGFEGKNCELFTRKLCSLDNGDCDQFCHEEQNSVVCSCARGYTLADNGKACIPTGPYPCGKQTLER
Sequence of Coagulation factor X (P00742 235-488 limits assumed): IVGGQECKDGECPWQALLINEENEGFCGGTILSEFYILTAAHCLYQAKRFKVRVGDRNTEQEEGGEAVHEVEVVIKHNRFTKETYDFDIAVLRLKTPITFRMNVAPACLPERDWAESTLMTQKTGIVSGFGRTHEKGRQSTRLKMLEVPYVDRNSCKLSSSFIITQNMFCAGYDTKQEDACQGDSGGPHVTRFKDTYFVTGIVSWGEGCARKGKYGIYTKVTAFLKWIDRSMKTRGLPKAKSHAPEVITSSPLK
Sequence of Plasminogen (P00747 97-580 limits assumed): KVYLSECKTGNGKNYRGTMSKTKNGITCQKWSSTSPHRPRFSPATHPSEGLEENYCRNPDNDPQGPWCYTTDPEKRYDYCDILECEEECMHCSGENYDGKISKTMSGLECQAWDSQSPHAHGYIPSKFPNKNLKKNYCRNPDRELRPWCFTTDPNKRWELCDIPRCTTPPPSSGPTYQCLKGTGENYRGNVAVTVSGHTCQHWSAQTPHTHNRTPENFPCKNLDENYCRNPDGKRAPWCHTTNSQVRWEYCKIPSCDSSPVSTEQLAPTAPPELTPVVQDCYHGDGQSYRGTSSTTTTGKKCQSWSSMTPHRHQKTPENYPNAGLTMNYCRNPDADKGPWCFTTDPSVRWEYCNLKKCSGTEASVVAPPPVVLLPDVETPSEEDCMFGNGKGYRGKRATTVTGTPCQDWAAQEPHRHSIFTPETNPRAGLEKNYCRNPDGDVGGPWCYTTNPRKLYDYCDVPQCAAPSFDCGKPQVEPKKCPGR
Sequence of Plasminogen (P00747 581-810 limits assumed): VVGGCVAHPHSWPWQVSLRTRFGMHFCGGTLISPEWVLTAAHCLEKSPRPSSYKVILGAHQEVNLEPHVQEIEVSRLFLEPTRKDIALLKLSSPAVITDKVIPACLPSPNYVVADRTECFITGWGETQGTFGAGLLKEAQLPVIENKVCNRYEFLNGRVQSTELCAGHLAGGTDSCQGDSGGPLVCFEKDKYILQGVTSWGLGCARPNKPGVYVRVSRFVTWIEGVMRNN

As a reminder, the IC50 is the concentration that gives 50% inhibition. As for `O=C(O[C@H]1[C@H](OC(=O)c2cc(OS(=O)(=O)[O-])cc(OS(=O)(=O)[O-])c2)[C@H](OC(=O)c2cc(OS(=O)(=O)[O-])cc(OS(=O)(=O)[O-])c2)[C@@H](OC(=O)c2cc(OS(=O)(=O)[O-])cc(OS(=O)(=O)[O-])c2)[C@H](OC(=O)c2cc(OS(=O)(=O)[O-])cc(OS(=O)(=O)[O-])c2)[C@H]1OC(=O)c1cc(OS(=O)(=O)[O-])cc(OS(=O)(=O)[O-])c1)c1cc(OS(=O)(=O)[O-])cc(OS(=O)(=O)[O-])c1.[Na+].[Na+].[Na+].[Na+].[Na+].[Na+].[Na+].[Na+].[Na+].[Na+].[Na+].[Na+]`, the IC50 against Coagulation factor XI [1] is 280 nM; against Prothrombin it was > 40000 nM; at Trypsin, > 40000 nM; at Plasminogen it was > 40000 nM; against Coagulation factor X, > 40000 nM; against Coagulation factor VII it was > 40000 nM. The IC50 against Coagulation factor XII and against Chymotrypsin was > 40000 nM in each case.
Broadly, the half-life is how long it takes for the measured level to halve. For orientation: bioavailability means the share of a dose that reaches the circulation, judged against a reference dose that is usually intravenous. Regarding `CC[C@@H](NC(=O)N1C(=O)[C@H](Cc2ccnc(N)c2)[C@H]1C(=O)N(C)c1nccn1C)c1ccccc1`, the concentration for half-maximal inhibition (IC50) on Coagulation factor XI [1] was < 10 nM. Also, the half-life in data set [2] amounted to 2.02 h. The fraction unbound at 4 h, 1e-05 µM in data set [3] came out at 0.5. The bioavailability in data set [4] is > 33%.
For the molecule `O=C(Nc1ccc(C(=O)Nc2ccc(C(=O)Nc3ccc(OS(=O)(=O)O)c4cc(OS(=O)(=O)O)cc(OS(=O)(=O)O)c34)cc2)cc1)Nc1ccc(C(=O)Nc2ccc(C(=O)Nc3ccc(OS(=O)(=O)O)c4cc(OS(=O)(=O)O)cc(OS(=O)(=O)O)c34)cc2)cc1`, the figures for the IC50 at Coagulation factor XI [1], against Neutrophil elastase and against Cathepsin G were 4600 nM, 220 nM and 570 nM, respectively.
A word on the CL/F: it is clearance divided by bioavailability, as obtained after extravascular dosing. Consider `O=c1cc(-c2c(-n3cnnn3)ccc(Cl)c2F)cc2n1[C@H](c1ccc(-c3ccnc(CO)c3F)[nH]1)CC2`, for which the IC50 at Coagulation factor XI [1] was determined as 1.8 nM; against Plasma kallikrein, 13 nM. In addition, the half-life in data set [5] is 3.25 h. This molecule returned a CL/F in data set [6] of 19.6 mL/min/kg. In [7], this molecule came in with a bioavailability of 53.4%.
In the case of `C[C@@H](NC(=O)N1C(=O)[C@H](Cc2ccnc(N)c2)[C@H]1C(=O)O)C1CCCCC1` [FRUNEXIAN], the figures for the IC50 against Coagulation factor XI [8], at Prothrombin and against Trypsin were 7.1 nM, > 20000 nM and > 4800 nM, respectively. For the same molecule, the half-life in [9] amounted to 0.75 h.
One may read the clearance as a measure of how efficiently the substance is removed, as volume per time. What is called solubility is the concentration that dissolves in the medium under given conditions. Consider `O=C(/C=C/c1cc(Cl)ccc1-n1cnnn1)N[C@@H](CC(=O)N1CCN(c2ccccc2)CC1)C(=O)Nc1ccc(C(=O)O)cc1`, for which the IC50 against Coagulation factor XI [1] was 7.1 nM; on Plasma kallikrein it was > 14000 nM. This molecule also had a half-life in [10] of 1.26 h. The molecule further displayed a clearance in data set [11] of 9.2 mL/min/kg. For the same molecule, the solubility in [12] is > 5200 µg/mL.
At Coagulation factor XI [1], `Nc1ccc(-c2nc(F)c([C@@H]3[C@H]4C[C@H]4c4cc(-c5cc(Cl)ccc5-n5cnnn5)cc(=O)n43)[nH]2)c(F)n1` returned an IC50 of 3.3 nM. In addition, the half-life in data set [13] was 1.6 h. In addition, the bioavailability in [14] amounted to 25.3%.
The molecule `[2H]C([2H])([2H])n1ncc2c1-c1ccnc(c1)[C@@H](c1coc(-c3cc(Cl)ccc3-n3cc(Cl)nn3)cc1=O)CCC[C@@H](C)C(=O)N2` came in with an IC50 at Coagulation factor XI [1] of 6.1 nM. In the data set with Plasma, the EC was found to be 2.7 µM. In data set [15], this molecule gave a half-life of 1.05 h. Moreover, the clearance in data set [16] was determined as 8.6 mL/min/kg. This molecule gave a bioavailability in [17] of 36.8%.
